Columns and labels:
Assay type in all cases: biochemical
[1] = target: T1, human serum albumin (HSA) (Homo sapiens, UniProt P02768); assay: Luminescence intensity measurement with human serum albumin; details: for HSA Luminescence intensity: total luminescence over 60 seconds, normalized against native coelenterazine in HSA set to 1.0, 10 µM substrate solution, 10 mM PB buffer pH 7.4
T1 construct: human serum-derived lyophilized powder, Fatty acid free, Globulin free, Sigma-Aldrich; purchased Sigma-Aldrich; host or cells: purified from human serum
Protocol: (§1) Human serum albumin (human serum-derived lyophilized powder, Fatty acid free, Globulin free, Sigma-Aldrich), other human protein species or bovine serum albumin (bovine serum-derived lyophilized powder, Sigma-Aldrich) was dissolved in PB Buffer (10 mM, pH 7.4) and used directly for luminescence measurement. As luminescent substrates, NCTZ, DeepBlueC™, MCLA™, control compounds 1 to 3, HuLumino12 and HuLumino22 were used. Each luminescent substrate was dissolved in methanol to give a 2 mM solution. This solution was diluted to 10 µM with 10 mM PB buffer (pH 7.4) for use as a substrate solution. To 90 µL of this solution, 10 µL of 10 mM PB buffer (pH 7.4) containing human serum albumin (HSA) or bovine serum albumin (BSA) was added to initiate a luminescent reaction. The luminescence intensity was measured with a Promega GloMax® 20/20 for 60 seconds, and the results were expressed as total luminescence (Total Luminescence/min) and compared (FIG. 1). […]

[2] = target: T2, bovine serum albumin (BSA) (Bos taurus, UniProt P02769); assay: Luminescence intensity measurement with bovine serum albumin; details: total luminescence over 60 seconds, normalized against native coelenterazine in HSA set to 1.0; 10 µM substrate solution, 10 mM PB buffer pH 7.4
T2 construct: bovine serum-derived lyophilized powder, Sigma-Aldrich; purchased Sigma-Aldrich; host or cells: purified from bovine serum
Protocol: as §1

[3] = target: T1, human serum albumin (HSA); assay: Signal to noise ratio of luminescence in the presence of HSA (FIG. 3); details: luminescent reaction with HSA; for S/N ratio: FIG. 3
Source text: FIG. 3 is a graph showing the luminescence property (signal to noise ratio, S/N ratio) of compounds according to examples of the present invention and comparative examples in the presence of human serum albumin (HSA).

HSA = target: T3, HSA (Homo sapiens, UniProt P02768); assay: Michaelis-Menten constant of luminescent substrate/HSA reaction
T3 construct: human serum-derived lyophilized powder, Fatty acid free, Globulin free, Sigma-Aldrich; purchased Sigma-Aldrich; host or cells: purified from human serum

[4] = target: T1, human serum albumin (HSA); assay: Luminescence spectrum measurement in the presence of HSA (FIG. 6)
Protocol: FIG. 6 is a graph showing the luminescence wavelength (luminescence spectrum measurement result) of HuLumino12 (a compound according to an example of the present invention) in the presence of human serum albumin (HSA).
The luminescence spectrum was measured with a spectrometer. The peak luminescence wavelength was obtained by being normalized against the peak luminescence intensity which was set to 1.0.

[5] = system: various human-derived proteins; assay: Luminescence intensity upon reaction with various human-derived proteins or bovine serum albumin (FIG. 2)
Protocol: FIG. 2 is a graph showing the luminescence intensity of HuLumino12 (a compound according to an example of the present invention) upon reaction with various human-derived proteins or bovine serum albumin.
as §1

[6] = target: T1, human serum albumin (HSA); assay: HSA concentration-dependent luminescence intensity, detection limit (FIG. 5)
Source text: FIG. 5 is a graph showing the luminescence intensity of HuLumino12 (a compound according to an example of the present invention), which is dependent on the concentration of human serum albumin (HSA).

[7] = target: T1, human serum albumin (HSA); assay: Luminescence duration in the presence of HSA (FIG. 4); details: luminescent reaction with HSA
Source text: FIG. 4 is a graph showing the luminescence property (luminescence duration) of HuLumino12 (a compound according to an example of the present invention) in the presence of human serum albumin (HSA).

T1 sequence (P02768 25-609): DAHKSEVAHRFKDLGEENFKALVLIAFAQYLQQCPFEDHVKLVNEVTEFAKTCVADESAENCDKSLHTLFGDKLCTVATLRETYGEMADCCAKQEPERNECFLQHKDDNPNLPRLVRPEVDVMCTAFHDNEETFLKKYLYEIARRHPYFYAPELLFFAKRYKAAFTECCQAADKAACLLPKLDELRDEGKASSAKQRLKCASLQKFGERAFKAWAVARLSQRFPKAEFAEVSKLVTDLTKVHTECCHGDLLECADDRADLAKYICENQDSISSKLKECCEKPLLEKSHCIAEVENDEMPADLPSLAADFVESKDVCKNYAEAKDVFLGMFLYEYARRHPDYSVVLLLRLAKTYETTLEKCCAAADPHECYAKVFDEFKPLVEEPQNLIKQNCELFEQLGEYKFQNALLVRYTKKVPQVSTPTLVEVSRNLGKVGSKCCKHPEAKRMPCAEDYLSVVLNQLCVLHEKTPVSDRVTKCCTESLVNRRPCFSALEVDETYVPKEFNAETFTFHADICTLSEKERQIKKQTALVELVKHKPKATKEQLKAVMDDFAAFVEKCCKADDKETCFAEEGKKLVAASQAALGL
T2 sequence (P02769 25-607): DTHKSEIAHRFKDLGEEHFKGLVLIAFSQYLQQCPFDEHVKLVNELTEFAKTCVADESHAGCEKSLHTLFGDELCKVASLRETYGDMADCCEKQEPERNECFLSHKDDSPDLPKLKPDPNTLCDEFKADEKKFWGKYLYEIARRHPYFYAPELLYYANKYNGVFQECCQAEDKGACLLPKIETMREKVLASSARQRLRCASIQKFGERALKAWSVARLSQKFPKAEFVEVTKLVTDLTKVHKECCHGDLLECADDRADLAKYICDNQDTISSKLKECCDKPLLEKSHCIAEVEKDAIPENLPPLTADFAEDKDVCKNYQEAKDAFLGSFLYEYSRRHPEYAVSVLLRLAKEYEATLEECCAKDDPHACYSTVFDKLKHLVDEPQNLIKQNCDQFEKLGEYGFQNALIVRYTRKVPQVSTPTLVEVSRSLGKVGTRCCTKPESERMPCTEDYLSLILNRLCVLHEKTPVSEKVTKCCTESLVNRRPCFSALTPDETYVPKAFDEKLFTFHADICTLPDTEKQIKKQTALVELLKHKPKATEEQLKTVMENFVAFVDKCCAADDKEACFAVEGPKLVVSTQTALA
T3 sequence (P02768 25-609): as the sequence (P02768 25-609) above

Row | Compound | HSA Luminescence intensity [1] | BSA Luminescence intensity [2] | other results
1 | COc1ccc(/C=C/c2cn3c(=O)c(Cc4ccccc4)nc-3c[nH]2)cc1 [HuLumino30, (E)-2-benzyl-6-(4-methoxystyryl)imidazo[1,2-a]pyrazin-3(7H)-one] | 154 | 19.2 | 
2 | O=c1c(Cc2ccccc2)nc2c[nH]c(/C=C/c3ccc(-c4ccccc4)cc3)cn1-2 [HuLumino44, (E)-6-(2-([1,1′-biphenyl]-4-yl)vinyl)-2-benzylimidazo[1,2-a]pyrazin-3(7H)-one] | 206 | 5.2 | S/N ratio relative to that of HuLumino12 [3]: approximately 4 fold; S/N ratio [3]: 150
3 | O=c1c(Cc2ccc(O)cc2)nc2c(Cc3ccccc3)[nH]c(-c3ccc(O)cc3)cn1-2 [NCTZ, reference compound] | 1.0 | 3.9 | Michaelis-Menten constant (HSA): 25.3 µM
4 | COCCCOc1ccc(-c2cn3c(=O)c(Cc4ccccc4)nc-3c[nH]2)cc1 [HuLumino12, 2-benzyl-6-(4-(3-methoxypropoxy)phenyl)imidazo[1,2-a]pyrazin-3(7H)-one] | 912 | 11.9 | peak luminescence wavelength [4]: 427 nm; S/N ratio [3]: 37; Michaelis-Menten constant (HSA): 4.2 µM; luminescence intensity higher than NCTZ/HSA ([1]; with HSA, relative to NCTZ/HSA): 912 fold; specificity of luminescent reaction among various human protein species [5]: specific luminescent reaction when recognized by human serum albumin (HSA); detection limit of HSA detection [6]: 7.4 µg/mL; luminescence duration [7]: 3 h
5 | COc1ccc(-c2cn3c(=O)c(Cc4ccccc4)nc-3c[nH]2)cc1 [Control compound 3, reference compound] | 554 | 34.4 | 
6 | COc1ccc(-c2cn3c(=O)c(C)nc-3c[nH]2)cc1 [MCLA™, reference compound] | 14.1 | 1.8 | 
7 | O=c1c(Cc2ccccc2)nc2c[nH]c(-c3ccc(O)cc3)cn1-2 [Control compound 2, reference compound] | 13.7 | 11.2 | 
8 | O=c1c(Cc2ccccc2)nc2c(Cc3ccccc3)[nH]c(-c3ccccc3)cn1-2 [DeepBlueC™, reference compound] | 22.1 | 7.6 | 
9 | COCCCOc1ccc(-c2cn3c(=O)c(Cc4ccccc4)nc-3c(Cc3ccccc3)[nH]2)cc1 [BBlue2.3, reference compound] | 51.5 | 34.3 | 
10 | COCCCOc1ccc(-c2cn3c(=O)c(C)nc-3c[nH]2)cc1 [HuLumino22, 6-(4-(3-methoxypropoxy)phenyl)-2-methylimidazo[1,2-a]pyrazin-3(7H)-one] | 14.2 | 3.1 | 
11 | O=c1c(Cc2ccccc2)nc2c[nH]c(/C=C/c3ccccc3)cn1-2 [HuLumino45, (E)-2-benzyl-6-styrylimidazo[1,2-a]pyrazin-3(7H)-one] | 61.3 | 9.8 | 
